Data reported in the Bradley open melting point set (2014).

For `CC(=O)Nc1ccc2c(c1)NC(=O)C2` [N-(2-oxo-2,3-dihydro-1H-indol-6-yl)acetamide], the melting point was 335 °C. For `Cc1ccc(N2C(=O)C=CC2=O)cc1Cl` [N-(3-chloro-4-methylphenyl)maleimide], the melting point was 146 °C. With `CC(=O)Nc1ccc(O)cc1` [N-(4-Hydroxyphenyl)acetamide] the melting point was 170 °C. `O=C1c2ccccc2C(=O)N1CCCCBr` [N-(4-bromobutyl)phthalimide] gave a melting point of 79 °C. Work on `CC(=O)Nc1cccc2c(N)cccc12` [N-(5-aminonaphthalen-1-yl)acetamide] yielded a melting point of 166 °C. With `Cc1ccc(cc1NC(=O)/C=CC(=O)O)Cl` [N-(5-chloro-2-methylphenyl)maleamic acid] the melting point was 120 °C. Compound `NCCNc1ccc([N+](=O)[O-])cn1` [N-(5-nitro-2-pyridyl)-1,2-ethanediamine] has a melting point of 127 °C. Compound `O=C1c2ccccc2C(=O)N1CCCCCCBr` [N-(6-bromohexyl)phthalimide] has a melting point of 57 °C. `O=CNC(c1ccccc1)c1ccccc1` [N-(Diphenylmethyl)formamide] showed a melting point of 136 °C. For `O=C1c2ccccc2C(=O)N1CBr` [N-(bromomethyl)phthalimide], the melting point was 147 °C. In the case of `CCOC(=O)N1C(=O)c2ccccc2C1=O` [N-(ethoxycarbonyl)phthalimide], the melting point is reported as 81 °C. For `CCCCc1ccccc1` [N-Butylbenzene], the melting point was -87.9 °C. With `CCCCNCCCC` [N-Butylbutan-1-amine] the melting point was -60 °C. `NC(=O)N[C@@H]1O[C@H](CO)[C@@H](O)[C@H](O)[C@H]1O` [N-Carbamoyl-beta-D-glucopyranosylamine] gave a melting point of 207 °C. Work on `O=C(O)[C@@H]1CCCN1C(=O)OCc1ccccc1` [N-Cbz-L-proline] yielded a melting point of 77 °C. In the case of `C1CCC(NC2CCCCC2)CC1` [N-Cyclohexylcyclohexanamine], the melting point is reported as -1 °C. Compound `ON=C1/CCCCC1` [N-Hydroxycyclohexanimine] has a melting point of 90 °C. With `CC(=O)Nc1ccccc1` [N-Phenylacetamide] the melting point was 115 °C. `O=CNc1ccccc1` [N-Phenylformamide] gave a melting point of 47 °C. For `O=[N+]([O-])c1cccc2c(/C=N/c3ccccc3)cccc12` [N-[(1E)-(5-nitronaphthalen-1-yl)methylidene]aniline], the melting point was 84 °C. `CC(=O)N/C=C/c1ccccc1[N+](=O)[O-]` [N-[(E)-2-(2-nitrophenyl)ethenyl]acetamide] showed a melting point of 150 °C. `CC(=O)N[C@@H](CCC(=O)O)C(=O)O` [N-acetyl-l-glutamic acid] gave a melting point of 197 °C. For `CC(=O)N[C@@H](Cc1ccc(O)cc1)C(=O)O` [N-acetyl-l-tyrosine], the melting point was 153 °C. With `N=C(N)NC(N)=S` [N-amidinothiourea] the melting point was 164 °C. In the case of `C(=N\c1ccccc1)/c1ccccc1` [N-benzylideneaniline], the melting point is reported as 53 °C. In the case of `CNCc1ccccc1` [N-benzylmethylamine], the melting point is reported as -55 °C. Work on `C[C@@H](NC(=O)OCc1ccccc1)C(=O)O` [N-benzyloxycarbonyl-D-alanine] yielded a melting point of 85 °C. `O=C(N[C@H](Cc1ccccc1)C(=O)O)OCc1ccccc1` [N-benzyloxycarbonyl-D-phenylalanine] gave a melting point of 86 °C. For `O=C(O)[C@H]1CCCN1C(=O)OCc1ccccc1` [N-benzyloxycarbonyl-D-proline], the melting point was 77 °C. `O=C(N[C@H](CO)C(=O)O)OCc1ccccc1` [N-benzyloxycarbonyl-D-serine] showed a melting point of 118 °C. With `CC(C)[C@@H](NC(=O)OCc1ccccc1)C(=O)O` [N-benzyloxycarbonyl-D-valine] the melting point was 59 °C. For `C[C@H](NC(=O)OCc1ccccc1)C(=O)O` [N-benzyloxycarbonyl-l-alanine], the melting point was 85 °C. Work on `CCCC[C@H](NC(=O)OCc1ccccc1)C(=O)O` [N-benzyloxycarbonyl-l-norleucine] yielded a melting point of 57 °C. With `C[C@@H](O)[C@H](NC(=O)OCc1ccccc1)C(=O)O` [N-benzyloxycarbonyl-l-threonine] the melting point was 98 °C. `CC(C)(C)OC(=O)N[C@@H](CO)Cc1ccccc1` [N-boc-D-phenylalaninol] showed a melting point of 95 °C.
